Assay results reported in PubChem BioAssay AID2615 (Southern Research Specialized Biocontainment Screening …, 2010).

Tested on: BSC cells SV40 infection, CPE inhibition
Assay: SV40 cytopathic effect inhibition and cytotoxicity, confirmation, SV40 T antigen inhibitor project, BSC cells (AID 2615)
Conditions: measured here: cytotoxicity in BSC cells

ClC(Cl)(c1nnnn1-c1ccccc1)c1nnnn1-c1ccccc1
TC50: 34 µM
